Results as given in PMC8838936, “Simultaneous Determination of Seven Lipophilic and Hydrophilic Components in Salvia miltiorrhiza Bunge by LC-MS/MS Method and Its Application to a Transport Study in a Blood-Brain-Barrier Cell Model” (Molecules, 2022).

Tests used:
[1] = test system: hBMEC cell monolayer (BBB cell model); assay: Transport study in a BBB cell model (bidirectional transwell permeability); format: in vitro ADME, Human; conditions: BBB cell model, within 120 min
Method: (§1) The hBMECs cells were seeded at a density of 3 × 10^5 cells per well on the transwell plates in EMC. Apical side volumes were 0.5 mL, and the medium was changed every day. Basal side volumes were 1.5 mL, and the medium was changed every other day. The medium was changed until confluent monolayers were formed. […] TEER provides information on ion current resistance across cell monolayers related to the integrity of tight junctions between cells. When the TEER reached the maximum value, the cell monolayer was used for the transport assay.
(§2) The permeability experiments were carried out bi-directionally, with working solutions containing one test component, TSI (1.25 μg/mL), DTSI (0.15 μg/mL), CTS (1.25 μg/mL), CFA (10 μg/mL), PAL (10 μg/mL), and PCTA (20 μg/mL). Aliquots of the […] compartment were collected after several time points (15, 30, 60, and 120 min) and replaced with drug-free assay buffer. The transwell plates were incubated on an orbital shaker at 37 °C for the entire experimental time. All experiments were performed in triplicate, and withdrawn samples were stored in −80 °C fridge before LC-MS/MS analysis.
(§3) For the BBB cell model, the apparent permeability coefficient, Papp in apical-to-basolateral (AP-BL) or basolateral-to-apical (BL-AP) direction, and efflux rate of each component were subsequently calculated according to the following equation: Papp = {dQ/dt} × {1/ (A × C0)},(1) where Q is the accumulation quantity of the compound in the receiver side (μg), dQ /dt is the rate of appearance of the compound in the receiver side (μg /s), C0 is the initial concentration in the donor side […], and A is the surface area of the membrane insert (cm^2). Furthermore, efflux ratios (ER) were calculated according to the following equation: ER = Papp (BL-AP)/Papp (AP-BL),(2) where Papp (BL-AP) and Papp (AP-BL) are the Papp values in the direction basolateral-to-apical and apical-to-basolateral, respectively.

[2] = as above; format: in vitro ADME, Human; conditions: human; for efflux ratio at 120 min: ER = Papp (BL-AP)/Papp (AP-BL), BBB cell model; for Papp B→A at 120 min: hBMEC monolayer on transwell, basolateral-to-apical, within 120 min, 37 °C, Mean ± SD, n = 3
Method: as §1, §2, §3

[3] = test system: endothelial cell monolayers; design: method as in PMID 17504224; conditions: facilitated efflux from the abluminal side to luminal side; cited from earlier work
BBB = test system: BBB; design: method as in PMID 26683637; conditions: cited from earlier work
[4] = Stability of analytes in HBSS (autosampler 24 h; −80 °C 15 days); format: physicochemical; conditions: HBSS system
Method: Stability was evaluated by analyzing LQC, MQC, and HQC concentrations at autosampler for 24 h and −80 °C for 15 days with five replicates. Stability was expressed in terms of accuracy (RE) and coefficient of variation (RSD). The samples were considered stable if accuracy (RE) was within ±15% of the nominal values and precision (RSD) was less than 15%.

SMILES	Stability in HBSS (in words) [4]	Absorption in the BBB model (class by Papp (AP-BL)) [1]	efflux ratio at 120 min [2]	Papp B→A at 120 min [2]	Transport of CTS in endothelial cell monolayers [3]	Effect on disruption of the BBB (BBB)
O=C(O)/C=C/c1ccc(O)c(O)c1 [CFA, caffeic acid]		easily absorbed	1.05	22.5 ×10⁻⁶ cm/s		
C[C@H]1COC2=C1C(=O)C(=O)c1c2ccc2c1CCCC2(C)C [CTS, cryptotanshinone]		moderate absorption	1.03	5.12 ×10⁻⁶ cm/s	polarized transport	
Cc1cccc2c3c(ccc12)C1=C(C(=O)C3=O)[C@@H](C)CO1 [DTS I, dihydrotanshinone I]		moderate absorption	0.779	3.62 ×10⁻⁶ cm/s		
O=Cc1ccc(O)c(O)c1 [PAL, protocatechuic aldehyde]		easily absorbed	0.805	12.2 ×10⁻⁶ cm/s		
O=C(O)c1ccc(O)c(O)c1 [PCTA, protocatechuic acid]		easily absorbed	0.946	41.3 ×10⁻⁶ cm/s		
Cc1coc2c1C(=O)C(=O)c1c-2ccc2c1CCCC2(C)C [TS IIA, tanshinone IIA]		difficult to be absorbed	0.673	0.0253 ×10⁻⁶ cm/s		suppress disruption of the BBB
CCC(C)(C)C(=O)O[C@H]1C[C@@H](C)C=C2C=C[C@H](C)[C@H](CC[C@@H]3C[C@@H](O)CC(=O)O3)[C@H]21 [simvastatin]	very unstable					
